Assay results published in US7141541B1, “Use of peptides” (University Court of the University of Dundee, priority 1999, dated 2006).
Where no end group is shown, it is not given here.

What was measured:
recombinant human eIF4E = recombinant human eIF4E (Homo sapiens, UniProt P06730); experiment: in vitro binding (pull-down) assay with eIF4E; details: FIG. 4, FIG. 5
Method: (§1) Sequences of biotinylated, penetratin-linked peptides. U=Norvaline, a substitution for cysteine. Conserved residues that are important in binding to eIF4E are underlined. b). In vitro binding assay. i) 1 μg recombinant eIF4E was incubated with 0.2 mM biotinylated peptides in a total volume of 50 μl wash buffer (1×PBS/250 mM Kcl) for 1 h at 4° C. ii) 0.2 mM Hu4G or Hu4G YLL-AAA was incubated with 200 μg MRC5 cell lysate for 1 h at 4° C. in a total volume of 50 μl wash buffer. In all cases the biotinylated peptides and associated proteins were pulled down using streptavidin agarose. The proteins were separated by SDS PAGE and subjected to Western blotting using anti-eIF4E antibody. Detection was by ECL;
In order to study directly the role of eIF4E in cell transformation, a series of biotinylated synthetic peptides (Peptides synthesised by Cyclacel) corresponding to the eIF4E interacting domain (binding motif) of human eIF4G, and wheat eIF4G and alanine substituted peptides thereof were synthesised (see FIG. 12a) and tested for their capacity to interact with ^35S-Met labelled in vitro translated human eIF4E (NB. Peptides BP1 and BP1 YLM-AAA were not biotinylated). Peptides were coupled to streptavidin coated agarose beads by a N-terminus linked biotin group and washed in PBS/0.2% Tween 3× before being incubated for 1 hour at +4° C. with in vitro translated human eIF4E. Beads were washed as above and boiled for 5 min. in SDS loading buffer before the peptide bound proteins were separated on a 10% SDS gel. The bands were visualised by autoradiography.

[1] = biological target: T1, eIF4E in MRC5 cell lysate (Homo sapiens, UniProt P06730); experiment: pull-down of eIF4E from MRC5 cell lysate; format: binding; details: 0.2 mM peptide, 200 μg MRC5 cell lysate, 1 h at 4° C.
T1 construct: endogenous in cells; host or cells: MRC5
Method: as §1

HaCaT cells = experiment: cytotoxic or cytostatic effect on HaCaT cells; format: cell-based
MRC5 cells [2] = experiment: peptide-induced cell death (apoptosis) in MRC5 cells; format: cell-based
Description: FIG. 8 is a table illustrating the induction of apoptosis by eIF4G peptides in MRC5 cells;
FIG. 9 is a summary of the results of inhibition of eIF4G(413-424)-induced apoptosis;

MRC5 cells [3] = experiment: cell survival by MTT assay; format: cell-based; details: various concentrations, 72 h serum-starved MRC5 cells, FIGS. 13b,c,d
Method: FIGS. 13a–d are graphs showing cell survival (% of control, untreated cells) as measured by MTT assay. a) Lane 1: 10 μM BP2 peptide added to serum-fed cells or Lane 2, 3, 4: 10 μM BP2 peptide added to 24 h, 48 h or 72 h serum-starved cells respectively. Lane 5: 10 μM BP2 YLL-AAA added to 72 h serum starved cells. Lane 6: 72 h serum starved cells incubated in 10% serum for 1 h prior to addition to 10 μM BP2 peptide. Lane 7: 72 h serum starved cells incubated with 100 μg/ml cycloheximide followed by a 1 h incubation with 10% serum prior to the addition of 10 μM BP2 peptide. In all cases the cells were then further incubated for 1 h in 0.1 mg/ml MTT. Cells were lysed in DMSO and absorbance was measured at […]. b–d) Varying concentrations of peptides were added to 72 h serum starved MRC5 cells. After 30 min incubation the cells were then further incubated for 1 h in 0.1 mg/ml MTT. Cells were lysed in DMSO and absorbance was measured at 570 nm.

MRC5 cells [4] = experiment: TUNEL analysis; format: cell-based; details: 10 μM peptide, 10 min
Method: (§2) MRC5 cells were incubated with 10 μM Hu4G peptide for 10 min. Cells visualised with fluorescein by fluorescence microscopy. […] 80% of cells incubated with the 10 μM Hu4G peptide fluoresced positive. d) Images of DAPI-stained MRC5 cells incubated with either 20 μM Hu4G or Hu4G YLL-AAA peptide for 40 min. Arrows indicate the position of a cell with either a condensed nucleus (top right) or a nucleus with a punctate appearance (bottom left). e) Visualisation of effects on the MPT. Serum-starved MRC5 cells were loaded with 0.1 μM JCl for 30 min prior to addition of 10 μM peptide. Changes in mitochondrial permeability were viewed by laser scanning confocal microscopy (krypton/argon laser) using identical setting. Green channel: excitation 488 nm/emission 522 nm. Red channel: excitation 568 nm/emission 585 nm. Channels were collected separately to avoid cross over. Images were taken 5 min after addition of the peptide;

MRC5 cells [5] = experiment: FACS analysis of propidium iodide-stained cells; format: cell-based; details: 20 μM, 40 min
MRC5 cells [6] = experiment: DAPI staining of cell nuclei; format: cell-based; details: 20 μM, 40 min
Method: as §2

MRC5 cells [7] = experiment: mitochondrial permeability transition (JC1 dye, confocal microscopy); format: cell-based; details: 10 μM peptide, serum-starved MRC5 cells
Method: as §2
An early event considered decisive in apoptosis is the opening of the mitochondrial permeability transition (MPT) pore (20–22). To characterise further the eIF4E-binding peptide-induced cell death, the development of the MPT was investigated in living MRC5 cells loaded with the fluorescent dye, JC1 (21).

[8] = system: HaCaT, Swiss 3T3, RATI and IIeLa cells; experiment: cell survival in other cell-types; format: cell-based; details: results not shown
MRC5 cells [9] = experiment: [35S]methionine incorporation into protein; format: cell-based; details: serum deprived cells, 30 minutes
Method: (§3) FIG. 16 illustrates that eIF4E binding peptide cell death is not through eIF4E's known role in mRNA translation. a) 72 h serum-starved MRC5 cells were treated with 100 μg/ml and 10 μg/ml cylcoheximide, 1 μg/ml and 0.1 μg/ml pactamycine or 10 μM Hu4G peptide for 2 h prior to a MTT assay. Cells were pulsed labelled with [^35S]methionine for 30 min after addition of the inhibitors/peptide. The incorporation of [^35S]methionine into protein was determined following hot trichloroacetic acid precipitation. b) 72 h serum-starved MRC5 cells were treated with 100 μg/ml cycloheximide (Chx), 1 μg/ml pactamycine (Pact) or c) MRC5 cells which had been starved of serum for 72 h were pre-incubated with 100 μg/ml cycloheximide or 1 μg/ml pactamycine for 30 min prior to addition of 10 μM Hu4G peptide. Cells were then further incubated for 1.5 h prior to a MTT assay. Results from three independent experiments (+/− SEM).
Serum deprived cells were treated with the general translation inhibitors Cyclohexamide or Pactamycin at indicated concentrations or the H4G peptide in the presence of 35S-Met for 30 minutes (see FIGS. 16a,b). Cells were lysed and the amount of translation was estimated by counting incorporated 35S-Met in precipitated protein fractions.

MRC5 cells [10] = experiment: MTT assay with general translation inhibitors (FIG. 16); format: cell-based; details: serum deprived cells
Method: as §3

T1 sequence (P06730 whole entry): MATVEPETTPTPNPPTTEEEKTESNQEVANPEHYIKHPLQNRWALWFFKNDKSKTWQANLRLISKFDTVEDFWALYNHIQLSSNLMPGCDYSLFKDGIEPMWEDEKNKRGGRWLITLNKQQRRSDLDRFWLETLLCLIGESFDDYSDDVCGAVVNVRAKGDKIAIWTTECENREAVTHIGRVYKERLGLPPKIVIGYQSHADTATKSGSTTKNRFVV
Sequence of recombinant human eIF4E (P06730 whole entry): as above

In the case of “Hu4G: biotinylated, penetratin-linked peptide of the eIF4E binding motif of human eIF4G (KKRYDREFLLGFRQIKIWFQNRRMKWKK; also: biotinylated)”, the “binding to recombinant human eIF4E in vitro” value (recombinant human eIF4E) is reported as “found to bind recombinant human eIF4E in vitro”, the “binding of eIF4E in cell lysates” value [1] is reported as “bound eIF4E in cell lysates” and the “time until cells began to die after peptide treatment” value (HaCaT cells; 60 h serum starved cells) is reported as no more than 15 min. For the same substance, the “effect with short treatment” value (HaCaT cells; HaCaT cells, <24 h with 20 μM) was “no effect observed”, the “cytotoxic or cytostatic effect” value (HaCaT cells; selected cell lines) was “exhibited a cytotoxic or cytostatic effect on selected cell lines” and the “effect of limited serum treatment on sensitivity to the peptide” value (MRC5 cells [2]; FIG. 9) was “Resistance”. The “cell death (possibly by apoptosis)” value (MRC5 cells [2]; serum starved cell lines, FIG. 8) was “caused rapid cell death”, the “cell death / cell viability” value (MRC5 cells [3]) was “rapid, dose-dependent, cell death” and the “cells fluoresced positive (TUNEL)” value (MRC5 cells [4]) was 80%. For the same substance, the DNA profile (MRC5 cells [5]) was “shift in the DNA profile from G0/1 to sub G0/1”, the nuclear condensation (MRC5 cells [6]) was “signs of nuclear condensation” and the “changes in JC1 fluorescence (MPT pore opening)” value (MRC5 cells [7]) was “rapid increase”. The “time to increase in green fluorescence with loss of orange fluorescence” value (MRC5 cells [7]) was no more than 5 min, the cell survival [8] was “rapid cell death” and the “incorporation of 35S-Met (translation)” value (MRC5 cells [9]) was “do not incorporate 35S-Met”. The cell killing (MRC5 cells [10]) was “they die”.
